Assay results as given in patent US12059425B2, “Heterocyclic compounds and uses thereof” (Kumquat Biosciences Inc., priority 2022, dated 2024).

Tests used:
[1] = system: SW620 cells; assay: Ras cellular assay, cell proliferation SW620; format: cell-based; details: Homo sapiens, SW-620
Description: For example, this assay can be also used to assess selective growth inhibition of a mutant Ras protein relative to a wildtype, or relative to a different mutant Ras protein.

[2] = system: GP2D cells; assay: Ras cellular assay, cell proliferation GP2D; format: cell-based
Procedure, shortened: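 Growth inhibition read by CellTiter-Glo luminescence roughly 5 days after compound addition, which followed overnight plating of G12D-mutant GP2D cells (e.g., 800 per well). Compounds were tested as a serial dilution (e.g., 9 points, 3-fold), with IC50 fitted by four-parameter model.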

[3] = system: A549 cells; assay: Ras cellular assay, cell proliferation A549; format: cell-based; details: Homo sapiens
Procedure, shortened: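 G12S-mutant A549 cells (800/well) in RPMI-1640 plus 10% heat-inactivated FBS, standard or ultra-low attachment 384-well plates, dosed the day after plating with a 10-point 3-fold series. Viability by CellTiter-Glo luminescence about 6 days later; IC50 from four-parameter fit.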

[4] = molecular target: T1, wildtype K-Ras (Homo sapiens, UniProt P01116); assay: PPI-HTRF assay, wildtype K-Ras / SOS1 interaction; format: biochemical; details: HTRF, K-Ras wt; read-out: PPI-HTRF-5 nM (K-Ras wt IC50)
T1 construct: made in house; host or cells: E. coli, e.g. BL21 (DE3)
T1 sequence (P01116 1-188 isoform P01116-2): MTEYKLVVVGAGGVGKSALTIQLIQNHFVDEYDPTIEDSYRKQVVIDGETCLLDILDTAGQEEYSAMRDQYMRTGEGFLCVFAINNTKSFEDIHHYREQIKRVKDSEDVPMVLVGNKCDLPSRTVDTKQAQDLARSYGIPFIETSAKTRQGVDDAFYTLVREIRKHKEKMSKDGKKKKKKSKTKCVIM
Procedure, shortened: (§1)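 GST-tagged K-Ras (G12D, G12V, G12S or wildtype) with anti-GST-Eu(K) donor was mixed with His-hSOS1 and anti-6His-XL665 acceptor in HEPES pH 7.4 buffer with NaCl, DTT, BSA and Igepal. After about 10 min, HTRF was read (ex 337 nm, em 620/665 nm). IC50 came from the 665/620 ratio, with duplicates from 10 μM down to 0.01 μM.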

[5] = molecular target: T2, K-Ras G12V (Homo sapiens, UniProt P01116, G12V); assay: PPI-HTRF assay, K-Ras G12V / SOS1 interaction; format: biochemical; details: HTRF, K-Ras G12V; read-out: PPI-HTRF-5 nM (K-Ras G12V IC50)
T2 construct: made in house; host or cells: E. coli, e.g. BL21 (DE3)
T2 sequence (P01116 1-188 isoform P01116-2 G12V): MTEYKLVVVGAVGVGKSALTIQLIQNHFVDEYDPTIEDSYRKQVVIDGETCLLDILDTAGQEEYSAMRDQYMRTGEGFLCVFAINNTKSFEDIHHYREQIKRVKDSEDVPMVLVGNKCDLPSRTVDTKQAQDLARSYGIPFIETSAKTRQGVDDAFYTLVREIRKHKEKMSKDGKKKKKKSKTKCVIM
Procedure, shortened: as §1

[6] = molecular target: T3, K-Ras G12D (Homo sapiens, UniProt P01116, G12D); assay: PPI-HTRF assay, K-Ras G12D / SOS1 interaction; format: biochemical; details: HTRF, K-Ras G12D; read-out: PPI-HTRF-5 nM (K-Ras G12D IC50)
T3 construct: made in house; host or cells: E. coli, e.g. BL21 (DE3)
T3 sequence (P01116 1-188 isoform P01116-2 G12D): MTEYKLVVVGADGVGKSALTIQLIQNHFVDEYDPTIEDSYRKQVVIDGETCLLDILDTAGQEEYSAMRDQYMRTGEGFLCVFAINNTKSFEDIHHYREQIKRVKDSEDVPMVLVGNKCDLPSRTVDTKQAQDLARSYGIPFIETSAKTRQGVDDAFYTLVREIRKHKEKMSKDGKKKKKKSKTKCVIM
Procedure, shortened: as §1

[7] = molecular target: T4, K-Ras G12S (Homo sapiens, UniProt P01116, G12S); assay: PPI-HTRF assay, K-Ras G12S / SOS1 interaction; format: biochemical; details: read-out: PPI-HTRF-5 nM (K-Ras G12S IC50)
T4 construct: made in house; host or cells: E. coli, e.g. BL21 (DE3)
T4 sequence (P01116 1-188 isoform P01116-2 G12S): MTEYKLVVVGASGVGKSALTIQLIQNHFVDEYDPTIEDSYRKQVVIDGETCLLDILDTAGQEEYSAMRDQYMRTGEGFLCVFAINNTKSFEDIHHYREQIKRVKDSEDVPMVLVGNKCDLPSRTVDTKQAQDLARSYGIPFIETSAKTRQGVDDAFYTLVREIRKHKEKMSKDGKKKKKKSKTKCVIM
Procedure, shortened: as §1

SMILES | IC50 [1] [µM] | IC50 [3] [µM] | IC50 [4] [µM] | IC50 [5] [µM] | IC50 [6] [µM] | IC50 [7] [µM] | IC50 [2] [µM]
COCC1CCC2COc3c(Cl)c(-c4ccc(F)c5sc(N)c(C#N)c45)c(F)c4nc(OCC56CCCN5C[C@H](F)C6)nc(c34)N2C1 (stereo partly drawn) [compound 121, 2-amino-4-(6-chloro-4-fluoro-2-(((2R)-2-fluorotetrahydro-1H-pyrrolizin-7a(5H)-yl)methoxy)-11-(methoxymethyl)-8,8a,9,10,11,12-hexahydropyrido[2′,1′:3,4][1,4]oxazepino [5,6,7-de]quinazolin-5-yl)-7-fluorobenzo[b]thiophene-3-carbonitrile] | < 5 | < 5 | < 5 | < 5 | < 5 | < 5 | < 5
COC[C@H]1C[C@H]2COc3c(Cl)c(-c4ccc(F)c5sc(N)c(C#N)c45)c(F)c4nc(OC[C@@]56CCCN5C[C@H](F)C6)nc(c34)N21 [compound 173, 2-amino-4-(9-chloro-7-fluoro-5-(((2R,7aS)-2-fluorotetrahydro-1H-pyrrolizin-7a(5H)-yl)methoxy)-2-(methoxymethyl)-1,2,11,11a-tetrahydroazeto[2′,1′:3,4][1,4]-oxazepino[5,6,7-de]quinazolin-8-yl)-7-fluorobenzo[b]thiophene-3-carbonitrile] | < 5 | < 5 | < 5 | < 5 | < 5 | < 5 | < 5
CN1c2nc(OC[C@@]34CCCN3C[C@H](F)C4)nc3c(F)c(-c4ccc(F)c5sc(N)c(C#N)c45)c(Cl)c(c23)OCC2COCC21 (stereo partly drawn) [compound 141, 2-amino-4-(6-chloro-4-fluoro-2-(((2R,7aS)-2-fluorotetrahydro-1H-pyrrolizin-7a(5H)-yl)methoxy)-12-methyl-8a,9,11a,12-tetrahydro-8H,11H-furo[3′,4′:6,7][1,5]oxazocino[4,3,2-de]quinazolin-5-yl)-7-fluorobenzo[b]thiophene-3-carbonitrile] | < 5 | < 5 | < 5 | < 5 | < 5 | < 5 | < 5
N#Cc1c(N)sc2c(F)ccc(-c3c(Cl)c4c5c(nc(OC[C@@]67CCCN6C[C@H](F)C7)nc5c3F)N3[C@H](CCO4)C[C@@H]4OCC[C@@H]43)c12 [compound 200, 2-amino-4-((6aR,7aS,10aS)-3-chloro-1-fluoro-13-(((2R,7aS)-2-fluorotetrahydro-1H-pyrrolizin-7a(5H)-yl)methoxy)-5,6,6a,7,7a,9,10,10a-octahydrofuro[2″,3″:4′,5′]pyrrolo[1′,2′:5,6][1,5]oxazocino[4,3,2-de]quinazolin-2-yl)-7-fluorobenzo[b]thiophene-3-carbonitrile] | < 5 | < 5 | < 5 | < 5 | < 5 | < 5 | < 5
N#Cc1c(N)sc2c(F)ccc(-c3c(Cl)c4c5c(nc(OC[C@@]67CCCN6C[C@H](F)C7)nc5c3F)N3CCN(C=O)CCC3CO4)c12 (stereo partly drawn) [compound 152, 2-amino-4-(12-chloro-10-fluoro-8-(((2R,7aS)-2-fluorotetrahydro-1H-pyrrolizin-7a(5H)-yl)methoxy)-3-formyl-2,3,4,5,14,14a-hexahydro-1H-[1,4]diazepino[7′,1′:3,4][1,4]oxazepino[5,6,7-de]quinazolin-11-yl)-7-fluorobenzo[b]thiophene-3-carbonitrile] | < 5 | < 5 | < 5 | < 5 | < 5 | < 5 | < 5
N#Cc1c(N)sc2c(F)ccc(-c3c(Cl)c4c5c(nc(OC[C@@]67CCCN6C[C@H](F)C7)nc5c3F)N3CC(OC(F)F)CCC3CO4)c12 (single isomer, unassigned) [compound 148] | < 5 | > 5 | < 5 | < 5 | < 5 | < 5 | < 5
N#Cc1c(N)sc2c(F)ccc(-c3c(Cl)c4c5c(nc(OC[C@@]67CCCN6C[C@H](F)C7)nc5c3F)N3CC(COC(F)F)CCC3CO4)c12 (stereo partly drawn) [compound 154, 2-amino-4-(6-chloro-11-((difluoromethoxy)methyl)-4-fluoro-2-(((2R,7aS)-2-fluorotetrahydro-1H-pyrrolizin-7a(5H)-yl)methoxy)-8,8a,9,10,11,12-hexahydropyrido[2′,1′:3,4][1,4]oxazepino [5,6,7-de]quinazolin-5-yl)-7-fluorobenzo[b]thiophene-3-carbonitrile] | < 5 | < 5 | < 5 | < 5 | < 5 | < 5 | < 5

More lines, main results first:

IC50 [1] [µM] | IC50 [3] [µM] | IC50 [4] [µM] | IC50 [5] [µM] | IC50 [6] [µM] | IC50 [7] [µM] | SMILES | IC50 [2] [µM]
< 5 | < 5 | < 5 | < 5 | < 5 | < 5 | N#Cc1c(N)sc2c(F)ccc(-c3c(Cl)c4c5c(nc(OCC67CCCN6C[C@H](F)C7)nc5c3F)N3CC(CO)CCC3CO4)c12 (stereo partly drawn) [compound 215, 2-amino-4-(6-chloro-4-fluoro-2-(((2R)-2-fluorotetrahydro-1H-pyrrolizin-7a(5H)-yl)methoxy)-11-(hydroxymethyl)-8,8a,9,10,11,12-hexahydropyrido[2′,1′:3,4][1,4]oxazepino [5,6,7-de]quinazolin-5-yl)-7-fluorobenzo[b]thiophene-3-carbonitrile] | < 5
< 5 | < 5 | < 5 | < 5 | < 5 | < 5 | N#Cc1c(N)sc2c(F)ccc(-c3c(Cl)c4c5c(nc(OCC67CCCN6C[C@H](F)C7)nc5c3F)N3CCC(O)CC3CO4)c12 (stereo partly drawn) [compound 132, 2-amino-4-(3-chloro-1-fluoro-12-(((2R,7aS)-2-fluorotetrahydro-1H-pyrrolizin-7a(5H)-yl)methoxy)-7-hydroxy-5,5a,6,7,8,9-hexahydropyrido[2′,1′:3,4][1,4]oxazepino[5,6,7-de]quinazolin-2-yl)-7-fluorobenzo[b]thiophene-3-carbonitrile] | < 5
< 5 | > 5 | < 5 | < 5 | < 5 | < 5 | N#Cc1c(N)sc2c(F)ccc(-c3c(Cl)c4c5c(nc(OC[C@@]67CCCN6C[C@H](F)C7)nc5c3F)N3CC5(CCCC3CCO4)CN(C(=O)C3CC3(F)F)C5)c12 (stereo partly drawn) [compound 127, 2-amino-4-(3-chloro-1′-(2,2-difluorocyclopropane-1-carbonyl)-1-fluoro-14-(((2R,7aS)-2-fluorotetrahydro-1H-pyrrolizin-7a(5H)-yl)methoxy)-5,6,6a,7,8,9-hexahydro-11H-spiro[azepino[1′,2′:5,6][1,5]oxazocino[4,3,2-de]quinazoline-10,3′-azetidin]-2-yl)-7-fluorobenzo[b]thiophene-3-carbonitrile] | < 5
